The source of these data is PubChem BioAssay AID1996.

The structures appear in SMILES notation. In brackets after ≈: the same amount, converted by molar mass.

What is called kinetic solubility is solubility judged after dilution from a stock solution rather than from solid.

The conditions of this series: buffer; pH 7.4; 200.0 µM.
`CCc1c(C)nc(N2CCN(c3ccc(OC)cc3)CC2)[nH]c1=O`: the solubility (kinetic) came out at 5.5 µg/mL (≈ 16.7 µM).
Then `Cc1ccc(C)c(-c2csc(NC(=O)c3c(C)noc3C)n2)c1`, with 2.1 µg/mL (≈ 6.41 µM).
`O=c1c(C/C=C/c2ccccc2)c(O)ccn1Cc1cccc(Cl)c1`: the kinetic solubility is less than 0.8 µg/mL.
Then `CC(Oc1ccccc1)C(=O)N1CCN(c2ncccn2)CC1` (stereo unspecified), with greater than 46.9 µg/mL; and `CCc1cc(=O)oc2cc(C)cc(OCC(=O)NC3CC3)c12`, with 25 µg/mL (≈ 83 µM); and `Cc1oc(C)c(S(=O)(=O)NCc2cccs2)c1C(=O)O`, with greater than 47.3 µg/mL.
Then `COc1ccccc1OCC(O)CN1CCN(C(=O)c2ccccc2)CC1.Cl` (stereo unspecified), with greater than 61 µg/mL; and `Cc1ccc(OCC(=O)N2CCCCCCC2)cc1C`, with 22.6 µg/mL (≈ 82.1 µM); and `O=c1c2nccnc2[nH]c(=S)n1Cc1ccccc1Cl`, with greater than 45.7 µg/mL.
Then `Cc1cccc(-n2c(-c3ccccc3)nc3ccccc3c2=O)n1`, with greater than 47 µg/mL; and `Cl.Fc1ccc(CNC2CN3CCC2CC3)cc1` (stereo unspecified), with greater than 46.1 µg/mL.
In turn, `O=C(NC12CC3CC(CC(C3)C1)C2)N(Cc1ccccc1)Cc1ccncc1` yielded a kinetic solubility of 6.2 µg/mL (≈ 16.5 µM).
For `O=C(NC(=S)Nc1cccc2cc(O)ccc12)c1ccco1` the value was 13.2 µg/mL (≈ 42.3 µM); for `O=C(c1ccccc1F)N1CCC2(CC1)OCCO2`, greater than 39.8 µg/mL; for `Cc1cc(SCc2ccc(Cl)cc2Cl)nc(=O)[nH]1`, 4.6 µg/mL (≈ 15.3 µM).
Then `O=C(O)c1cccc(N=C2NC(=O)C(CO)(CO)S2)c1`, with greater than 44.4 µg/mL; and `O=C(Nc1cccc2c1CCCC2)c1ccccc1Cl`, with 1.8 µg/mL (≈ 6.3 µM); and `CCOc1cc2c(C#N)c(N3CCCCC3)nc(N)c2c(N)n1`, with 10.6 µg/mL (≈ 33.9 µM).
For `N#Cc1ccc(OCC(=O)Nc2ccc3[nH]c(=O)[nH]c3c2)cc1` the value was 7.3 µg/mL (≈ 23.7 µM); for `O=S(=O)(Nc1ccccc1Br)c1cccs1`, greater than 47.7 µg/mL.
`COc1ccccc1N1CCN(C(=O)CSc2nnc(C)n2C2CC2)CC1` registered a kinetic solubility greater than 58.1 µg/mL.
Then `COC(=O)[C@H](CC(C)C)NC(=O)NCc1ccc(Cl)cc1`, with 42.5 µg/mL (≈ 136 µM).
For `COc1ccccc1/C=C/c1nc(C#N)c(N(C)C)o1` the value was 0.4 µg/mL (≈ 1.49 µM).
As for `COc1cccc(/C=C(\C#N)c2nc3ccccc3[nH]2)c1OCC(=O)O`, the kinetic solubility is greater than 52.4 µg/mL.
Compound `N#Cc1c(N)nc2c(c1-c1ccc(F)cc1)c(=O)nc1sccn12` displayed a kinetic solubility of 5.7 µg/mL (≈ 16.9 µM).
Then `Cc1cccc(-n2c(=S)[nH]c3nc4c(cc3c2=O)COC(C)(C)C4)c1`, with 1.7 µg/mL (≈ 4.81 µM); and `COc1cccc(-c2noc(-c3ccc(Br)o3)n2)c1`, with 0.5 µg/mL (≈ 1.56 µM); and `CCCc1cc(=O)[nH]c(SCc2nc3ccccc3o2)n1`, with greater than 45.2 µg/mL.
`N/C(=N\c1nc2ccccc2o1)NC(=O)c1cccc(Br)c1` gave a kinetic solubility of less than 0.2 µg/mL.
`OC(CCN1CCCCC1)c1ccc(-c2ccccc2)cc1` (stereo unspecified) yielded a solubility (kinetic) greater than 44.3 µg/mL.
For `CN(C(=O)c1cccc(NC(=O)c2ccco2)c1)c1ccccc1` the value was greater than 48.1 µg/mL; for `O=C(CCNS(=O)(=O)c1ccccc1)N1CCCC1`, greater than 42.4 µg/mL; for `Cc1cc(C)nc(NC(=O)c2cccs2)c1`, 22.6 µg/mL (≈ 97.3 µM).
Then `O=S(=O)(Nc1ccccc1Cl)c1cccc2nsnc12`, with greater than 48.9 µg/mL.
For `CCC(CC)C(=O)c1c[nH]c(C(=O)NCc2ccccc2)c1` the value was 2.2 µg/mL (≈ 7.37 µM); for `CCOc1ccc(C(C)=O)cc1Cc1c(O)[nH]c(=S)[nH]c1=O`, 46.3 µg/mL (≈ 145 µM); for `CC(=O)c1sccc1NC(=O)c1ccccc1C(=O)O`, greater than 43.4 µg/mL.
As for `O=C(COC(=O)C1(c2ccccc2)CCCC1)N1CCNC1=O`, the kinetic solubility was greater than 47.5 µg/mL.
Then `O=C(CCCc1c[nH]c2ccccc12)Nc1ncccc1O`, with 35.9 µg/mL (≈ 122 µM).
In turn, `O=C(COC(=O)Cc1ccc(F)cc1)NCCc1ccccc1` yielded a solubility (kinetic) greater than 47.3 µg/mL.
Then `Cc1cc(N)ccc1-c1cc2ccccc2oc1=O`, with 25.8 µg/mL (≈ 103 µM).
